Laboratory results taken from patent publication US6426229B1, “Chelating agent and detergent comprising the same” (Mitsubishi Rayon Co., Ltd., priority 1995, dated 2002).

experiment: Storage of aqueous solution or slurry for 60 days: HPLC analysis of components and appearance; assay type: physicochemical; settings: keeping temperature 50° C.
Procedure: (§1) This aqueous solution was kept at 50° C. for 60 days, and, then, the components were analyzed by HPLC and, simultaneously, the appearance of the solution was observed.
as §1
This aqueous solution was kept at 50° C. for 60 days. Then, the components were analyzed by HPLC and, simultaneously, the appearance of the solution was observed.

| SMILES | Appearance after kept for 60 days | Content of the compound of the formula [I] in aqueous solution after kept for 60 days |
| --- | --- | --- |
| O=C([O-])CN(CC(=O)[O-])c1ccccc1C(=O)[O-].[Na+].[Na+].[Na+] [Example 102, trisodium salt of anthranilic acid-N,N-diacetic acid] | Light yellow transparent aqueous solution | 37.8 wt. % |
| O=C([O-])CC(NCCNC(CC(=O)[O-])C(=O)[O-])C(=O)[O-].[Na+].[Na+].[Na+].[Na+] (stereo not drawn) [Example 112, tetrasodium ethylenediamine-N,N′-disuccinate] | Light yellow transparent aqueous solution | 36.4 wt. % |
| O=C([O-])C[C@H](NCCN[C@@H](CC(=O)[O-])C(=O)[O-])C(=O)[O-].[Na+].[Na+].[Na+].[Na+] [Example 113, tetrasodium (S,S)-ethylenediamine-N,N′-disuccinate] | Light yellow transparent aqueous solution | 35.6 wt. % |
| O=C([O-])CC(NCCCNC(CC(=O)[O-])C(=O)[O-])C(=O)[O-].[Na+].[Na+].[Na+].[Na+] (stereo not drawn) [Example 114, tetrasodium 1,3-propanediamine-N,N′-disuccinate] | Light yellow transparent aqueous solution | 36.4 wt. % |
| O=C([O-])CC(NCCNC(CC(=O)[O-])C(=O)[O-])C(=O)[O-].[Cu+2].[Na+].[Na+] (stereo not drawn) [Example 124, copper disodium ethylenediamine-N,N′-disuccinate] | Dark blue transparent aqueous solution | 36.3 wt. % |
| O=C([O-])C[C@H](NCCN[C@@H](CC(=O)[O-])C(=O)[O-])C(=O)[O-].[Fe+3].[NH4+] [Example 125, iron ammonium (S,S)-ethylenediamine-N,N′-disuccinate] | Reddish brown aqueous solution | 36.5 wt. % |
| O=C([O-])CC(NCCCNC(CC(=O)[O-])C(=O)[O-])C(=O)[O-].[Cu+2].[Na+].[Na+] (stereo not drawn) [Example 126, copper disodium 1,3-propanediamine-N,N′-disuccinate] | Dark blue transparent aqueous solution | 36.4 wt. % |
| O=C([O-])CN[C@@H](CC(=O)[O-])C(=O)[O-].[Na+].[Na+].[Na+] [compound 29, trisodium salt of (S)-aspartic acid-N-monoacetic acid] | Brown aqueous solution | 31.1 wt. % |
| O=C([O-])C[C@@H](C(=O)[O-])N(CC(=O)[O-])CC(=O)[O-].[Na+].[Na+].[Na+].[Na+] [compound 30, tetrasodium salt of (S)-aspartic acid-N,N-diacetic acid] | Brown aqueous solution | 31.8 wt. % |
| O=C([O-])CCN[C@@H](CC(=O)[O-])C(=O)[O-].[Na+].[Na+].[Na+] [compound 31, trisodium salt of (S)-aspartic acid-N-monopropionic acid] | Brown aqueous solution | 33.2 wt. % |
| C[C@@H](C(=O)[O-])N(CC(=O)[O-])CC(=O)[O-].[Na+].[Na+].[Na+] [compound 32, trisodium salt of (S)-α-alanine-N,N-diacetic acid] | Brown aqueous solution | 31.8 wt. % |
| O=C([O-])CN[C@@H](CC(=O)[O-])C(=O)[O-].[Na+].[Na+].[Na+] [compound 33, trisodium salt of (S)-aspartic acid-N-monoacetic acid] | Brown slurry | 30.5 wt. % |
| O=C([O-])CN(CCS(=O)(=O)[O-])CC(=O)[O-].[Na+].[Na+].[Na+] [compound 37, trisodium salt of taurine-N,N-diacetic acid] | Brown aqueous solution | 30.4 wt. % |
| CN(CC(=O)[O-])CC(=O)[O-].[Na+].[Na+] [compound 38, disodium N-methyliminodiacetate] | Brown aqueous solution | 29.9 wt. % |
| O=C([O-])CN(CC(=O)[O-])c1ccccc1C(=O)[O-].[Na+].[Na+].[Na+] [compound 39, trisodium salt of anthranilic acid-N,N-diacetic acid] | Brown aqueous solution | 31.8 wt. % |
| O=C([O-])CN(CCS(=O)(=O)[O-])CC(=O)[O-].[Na+].[Na+].[Na+] [compound 40, trisodium salt of taurine-N,N-diacetic acid] | Brown slurry | 29.5 wt. % |
| O=C([O-])CC(NCCNC(CC(=O)[O-])C(=O)[O-])C(=O)[O-].[Na+].[Na+].[Na+].[Na+] (stereo not drawn) [compound 43, tetrasodium ethylenediamine-N,N′-disuccinate] | Light yellow transparent aqueous solution | 35.7 wt. % |
| O=C([O-])C[C@H](NCCN[C@@H](CC(=O)[O-])C(=O)[O-])C(=O)[O-].[Na+].[Na+].[Na+].[Na+] [compound 44, tetrasodium (S,S)-ethylenediamine-N,N′-disuccinate] | Light yellow transparent aqueous solution | 34.4 wt. % |
| O=C([O-])CC(NCCCNC(CC(=O)[O-])C(=O)[O-])C(=O)[O-].[Na+].[Na+].[Na+].[Na+] (stereo not drawn) [compound 45, tetrasodium 1,3-propanediamine-N,N′-disuccinate] | Light yellow transparent aqueous solution | 33.3 wt. % |
| O=C([O-])CC(NCCNC(CC(=O)[O-])C(=O)[O-])C(=O)[O-].[Cu+2].[Na+].[Na+] (stereo not drawn) [compound 48, copper disodium ethylenediamine-N,N′-disuccinate] | Dark blue transparent aqueous solution | 31.4 wt. % |
| O=C([O-])C[C@H](NCCN[C@@H](CC(=O)[O-])C(=O)[O-])C(=O)[O-].[Fe+3].[NH4+] [compound 49, iron ammonium (S,S)-ethylenediamine-N,N′-disuccinate] | Blackish brown aqueous solution | 29.9 wt. % |
| O=C([O-])CC(NCCCNC(CC(=O)[O-])C(=O)[O-])C(=O)[O-].[Cu+2].[Na+].[Na+] (stereo not drawn) [compound 50, copper disodium 1,3-propanediamine-N,N′-disuccinate] | Dark blue transparent aqueous solution | 32.2 wt. % |

experiment: not given; settings: reported value; cited from earlier work

| SMILES | chelate stability constant for calcium |
| --- | --- |
| CN(CC(=O)O)CC(=O)O [MIDA, N-methyliminodiacetic acid] | 3.7 |
| O=C(O)CN(CC(=O)O)CC(=O)O [NTA, nitrilotriacetic acid, reference compound] | 6.4 |
| O=C(O)C[C@@H](C(=O)O)N(CC(=O)O)CC(=O)O [S-ASDA, (S)-aspartic acid-N,N-diacetic acid] | 5.8 |
| O=C(O)CN(CCS(=O)(=O)O)CC(=O)O [TUDA, taurine-N,N-diacetic acid] | 4.2 |

experiment: Biodegradability, 301C Modified MITI Test (1) (OECD guideline); settings: not given

| SMILES | biodegradability in 301C Modified MITI Test |
| --- | --- |
| CN(CC(=O)O)CC(=O)O [MIDA, N-methyliminodiacetic acid] | completely decomposed to inorganic materials in a short time |
| O=C(O)CN[C@@H](CC(=O)O)C(=O)O [S-ASMA, (S)-aspartic acid-N-monoacetic acid] | completely converted to inorganic materials in a short time |
| O=C(O)CCN[C@@H](CC(=O)O)C(=O)O [S-ASMP, (S)-aspartic acid-N-monopropionic acid] | completely converted to inorganic materials in a short time |
